Among the data in ChEMBL document CHEMBL1129068, “Structure-activity relationships of the antimalarial agent artemisinin. 5. Analogs of 10-deoxoartemisinin substituted at C-3 and C-9” (J Med Chem, 1996) are Relative activity values, retold here.

For experiment [1], the system named is Plasmodium falciparum. Put plainly: Relative in vitro activity compared to artemisinin against Plasmodium falciparum Indochina W2. The format is functional.
The test system of experiment [2] is Plasmodium falciparum. Put plainly: Relative in vitro activity compared to artemisinin against Plasmodium falciparum D6 (Sierra Leone). The format is functional.

Consider `CCCCC[C@H]1CO[C@@H]2O[C@@]3(C)CC[C@H]4[C@H](C)CC[C@@H]1[C@@]24OO3`, for which the values for the Relative activity with Plasmodium falciparum [1] and with Plasmodium falciparum [2] were 145 and 170, respectively.
For `C[C@@H]1CC[C@H]2[C@@H](CCCc3ccc(Cl)cc3)CO[C@@H]3O[C@@]4(C)CC[C@@H]1[C@]32OO4` the same measures were 3317 and 6991.
Taken in the same sequence, the figures for `C[C@@H]1CC[C@H]2CCO[C@@H]3O[C@@]4(CCCCc5ccccc5)CC[C@@H]1[C@@]23OO4` were 380 and 336.
As to `CCOC(=O)CC[C@@]12CC[C@H]3[C@H](C)CC[C@H]4CCO[C@H](O1)[C@]43OO2`, the Relative activity was determined as 506 in the experiment with Plasmodium falciparum [1] and 422 in the experiment on Plasmodium falciparum [2].
Taken in the same sequence, the figures for `CCC[C@@]12CC[C@H]3[C@H](C)CC[C@H]4CCO[C@H](O1)[C@]43OO2` were 685 and 722.
Turning to `CCC[C@H]1CO[C@@H]2O[C@@]3(C)CC[C@H]4[C@H](C)CC[C@@H]1[C@@]24OO3`, the values for the Relative activity in the experiment with Plasmodium falciparum [1] and in the experiment with Plasmodium falciparum [2] were 550 and 473, respectively.
Take `C[C@@H]1CC[C@H]2CCO[C@@H]3O[C@@]4(C)CC[C@@H]1[C@@]23OO4`: the results for the Relative activity in the experiment with Plasmodium falciparum [1] and in the experiment with Plasmodium falciparum [2] were 190 and 237, respectively.
For `C[C@@H]1CC[C@H]2CCO[C@@H]3O[C@@]4(CCc5ccccc5)CC[C@@H]1[C@@]23OO4` the same measures were 2 and 6.
For `CCCC[C@H]1CO[C@@H]2O[C@@]3(C)CC[C@H]4[C@H](C)CC[C@@H]1[C@@]24OO3` the same measures were 2090 and 5826.
Turning to `CCCC[C@@]12CC[C@H]3[C@H](C)CC[C@H]4CCO[C@H](O1)[C@]43OO2`, the Relative activity in the experiment on Plasmodium falciparum [1] is 556; in the experiment with Plasmodium falciparum [2] it was 653.
With `C[C@@H]1CC[C@H]2CCO[C@@H]3O[C@@]4(CCC(=O)O)CC[C@@H]1[C@@]23OO4`, the Relative activity in the experiment with Plasmodium falciparum [1] and in the experiment on Plasmodium falciparum [2] was 0.09 in each case.
For `CC(C)C[C@@]12CC[C@H]3[C@H](C)CC[C@H]4CCO[C@H](O1)[C@]43OO2`, the Relative activity in the experiment with Plasmodium falciparum [1] turned out to be 250; in the experiment with Plasmodium falciparum [2] it was 183.
On to `C[C@@H]1CC[C@H]2CCO[C@@H]3O[C@@]4(CCCc5ccc(Cl)cc5)CC[C@@H]1[C@@]23OO4`, for which the Relative activity was 28 in the experiment with Plasmodium falciparum [1] and 13 with Plasmodium falciparum [2].
Taken in the same sequence, the figures for `C[C@@H]1CC[C@H]2[C@@H](CCCc3ccccc3)CO[C@@H]3O[C@@]4(C)CC[C@@H]1[C@]32OO4` were 2506 and 5073.
Taken in the same sequence, the figures for `CC[C@H]1CO[C@@H]2O[C@@]3(C)CC[C@H]4[C@H](C)CC[C@@H]1[C@@]24OO3` were 466 and 914.
For `CC[C@@]12CC[C@H]3[C@H](C)CC[C@H]4CCO[C@H](O1)[C@]43OO2` the same measures were 10 and 10.
As for `C[C@@H]1CC[C@H]2[C@@H](C)CO[C@@H]3O[C@]4(C)CC[C@@H]1[C@]32OO4` [DEOXOARTEMISININ], the Relative activity with Plasmodium falciparum [1] is given as 567; in the experiment with Plasmodium falciparum [2] it was 659.
